Source: patent publication US20240358693A1, “METHODS OF TREATING PAIN” (Aisa Pharma, Inc., priority 2023, published 2024)

System: participants with SSc-RP
Test: Scleroderma Health Assessment Questionnaire (SHAQ): disability indices and visual analog scales
Format: in vivo, human
Settings: Part A
Source text: The standard, validated, patient reported outcome measures tool for SSc patients, the Scleroderma Health Assessment Questionnaire (SHAQ), will be used to assess the participant qualify of life. Details are attached in the Appendix. The participant quality of life will be scored, and a disability index calculated for each questionnaire completed by the patient at Screening and each in-clinic visit. The absolute change in participant quality of life from baseline to the end of each dosing period will be calculated similar to frequency data as before.
The SHAQ includes a Raynaud's VAS, which will be reported at screening and each in-clinic visit. The absolute change in Raynaud-VAS, assessed by the participants response to the SHAQ question ‘In the past 7 days, how much have your Raynaud's interfered with your daily activities?’ at baseline and the end of each dosing period will be calculated similar to frequency data as before.
The SHAQ is used to calculate a Disability Index to assess the participant qualify of life. The eight categories assessed by the Disability Index are 1) dressing and grooming, 2) arising, 3) eating, 4) walking, 5) hygiene, 6) reach, 7) grip, and 8) common daily activities. For each of these categories, patients report the amount of difficulty they have in performing two or three specific activities.
There are four possible responses for the Disability Index questions: • Without any difficulty=0 • With some difficulty=1 • With much difficulty=2 • Unable to do=3. • The highest score reported by the patient for any component question of the eight categories determines the score for that category. • If a component question is left blank or the response is too ambiguous to assign a score, then the score for that category is determined by the remaining completed question(s). • If all component questions are blank or if more than one answer is given, then follow up with the respondent is required. • If the respondent's mark is between the response columns, then move it to the closest one. If it's directly between the two, move it to the higher one.
Each of the disability items on the SHAQ has a companion aids/devices variable that is used to record what type(s) of assistance, if any, the participant uses for his/her usual activities. These variables (see below) are coded as follows: • 0=No assistance is needed. • 1=A special device is used by the patient in his/her usual activities. • 2=The patient usually needs help from another person. • 3=The patient usually needs BOTH a special device AND help from another person.
The scoring variables and scoring rules permit the computation of two disability indices, the Standard Disability Index and the Alternative Disability Index.
This question results in a new set of category scores that are computed by adjusting the score for each category, if necessary, based on the patient's use of an aid or device or assistance for that category. If either devices and/or help from another person are checked for a category, the score is set to “2”, unless the score is already “3” (i.e., scores of “0” or “1” are increased to “2”). For example, if the highest score for the dressing category is “1”, and the patient says they use a device for dressing, the computed category score would be “2”. The sum of the computed categories scores is then calculated and divided by the number of categories answered. This gives a score in the 0 to 3 range.
The aid and device variables are not used to calculate the alternative disability index; it is calculated by adding the scores for each of the categories and dividing by the number of categories answered. This gives a score in the 0 to 3 range.
The standard, validated, patient reported outcome measures tool for SSc patients, the SHAQ, was collected at the time points specified in the study schedules (FIG. 2 and FIGS. 4A and 4B) to assess the participant's quality of life. The SHAQ included a Raynaud's VAS that will also be reported separately.

[1] = Modified ITT, dose Cilnidipine 20 mg, or 20 mg + Tadalafil 5 mg
[2] = PP Population, sensitivity analysis, Pooled Cilnidipine 10 mg and Cilnidipine 10 mg + Tadalafil 5 mg
[3] = PP Population, sensitivity analysis, Pooled Cilnidipine 20 mg and Cilnidipine 20 mg + Tadalafil 5 mg
[4] = PP Population, sensitivity analysis, cilnidipine 10 mg and/or tadalafil 5 mg as labelled

COCCOC(=O)C1=C(C)NC(C)=C(C(=O)OC/C=C/c2ccccc2)C1c1cccc([N+](=O)[O-])c1 (stereo not shown) [Cilnidipine, cilnidipine]
SHAQ Finger Ulcers, In Clinic Visit (Day 12), Mean [1]: 0.867
SHAQ Finger Ulcers, In Clinic Visit (Day 12), Median [1]: 0.700
SHAQ Standard disability index, Baseline, Mean [1]: 0.250
SHAQ Standard disability index, Baseline, Median [1]: 0.375
SHAQ Standard disability index, In Clinic Visit (Day 12), Mean [1]: 0.125
SHAQ Standard disability index, In Clinic Visit (Day 12), Median [1]: 0.125
SHAQ Visual Analog Scale-Breathing Problems, Baseline, Mean [1]: 1.133
SHAQ Visual Analog Scale-Breathing Problems, Baseline, Median [1]: 1.200
SHAQ Visual Analog Scale-Breathing Problems, In Clinic Visit (Day 12), Mean [1]: 0.300
SHAQ Visual Analog Scale-Breathing Problems, In Clinic Visit (Day 12), Median [1]: 0.400
SHAQ Visual Analog Scale-Intestinal Problems, Baseline, Mean [1]: 0.833
SHAQ Visual Analog Scale-Intestinal Problems, Baseline, Median [1]: 1.000
SHAQ Visual Analog Scale-Intestinal Problems, In Clinic Visit (Day 12), Mean [1]: 1.133
SHAQ Visual Analog Scale-Intestinal Problems, In Clinic Visit (Day 12), Median [1]: 1.300
SHAQ Visual Analog Scale-Pain, Baseline, Mean [1]: 2.167
SHAQ Visual Analog Scale-Pain, Baseline, Median [1]: 1.500
SHAQ Visual Analog Scale-Pain, In Clinic Visit (Day 12), Mean [1]: 1.067
SHAQ Visual Analog Scale-Pain, In Clinic Visit (Day 12), Median [1]: 0.700
SHAQ Visual Analog Scale-Raynaud's, Baseline, Mean [1]: 2.300
SHAQ Visual Analog Scale-Raynaud's, Baseline, Median [1]: 2.500
SHAQ Visual Analog Scale-Raynaud's, In Clinic Visit (Day 12), Mean [1]: 1.033
SHAQ Visual Analog Scale-Raynaud's, In Clinic Visit (Day 12), Median [1]: 1.100
SHAQ alternative disability index, Baseline, Mean [1]: 0.208
SHAQ alternative disability index, Baseline, Median [1]: 0.250
SHAQ alternative disability index, In Clinic Visit (Day 12), Mean [1]: 0.125
SHAQ alternative disability index, In Clinic Visit (Day 12), Median [1]: 0.125
SHAQ Alternative Disability Index: Baseline, Mean [2]: 0.458
SHAQ Alternative Disability Index: Baseline, Median [2]: 0.250
SHAQ Alternative Disability Index: Change from Baseline (Day 12), Mean [2]: 0.021
SHAQ Alternative Disability Index: Change from Baseline (Day 12), Median [2]: 0.000
SHAQ Alternative Disability Index: In-Clinic Visit (Day 12), Mean [2]: 0.479
SHAQ Alternative Disability Index: In-Clinic Visit (Day 12), Median [2]: 0.250
SHAQ Alternative Disability Index: Percent Change from Baseline (Day 12), Mean [2]: 28.11%
SHAQ Alternative Disability Index: Percent Change from Baseline (Day 12), Median [2]: −10.00%
SHAQ Alternative Disability Index: Baseline, Mean [3]: 0.453
SHAQ Alternative Disability Index: Baseline, Median [3]: 0.250
SHAQ Alternative Disability Index: Change from Baseline (Day 12), Mean [3]: −0.036
SHAQ Alternative Disability Index: Change from Baseline (Day 12), Median [3]: −0.063
SHAQ Alternative Disability Index: In-Clinic Visit (Day 12), Mean [3]: 0.417
SHAQ Alternative Disability Index: In-Clinic Visit (Day 12), Median [3]: 0.250
SHAQ Alternative Disability Index: Percent Change from Baseline (Day 12), Mean [3]: 13.40%
SHAQ Alternative Disability Index: Percent Change from Baseline (Day 12), Median [3]: −18.13%
SHAQ Visual Analogue Scale - Breathing Problems: Baseline, Mean [4]: 1.875
SHAQ Visual Analogue Scale - Breathing Problems: Baseline, Median [4]: 0.000
SHAQ Visual Analogue Scale - Breathing Problems: Change from Baseline (Day 12), Mean [4]: −0.300
SHAQ Visual Analogue Scale - Breathing Problems: Change from Baseline (Day 12), Median [4]: 0.000
SHAQ Visual Analogue Scale - Breathing Problems: In-Clinic Visit (Day 12), Mean [4]: 1.575
SHAQ Visual Analogue Scale - Breathing Problems: In-Clinic Visit (Day 12), Median [4]: 0.000
SHAQ Visual Analogue Scale - Breathing Problems: Percent Change from Baseline (Day 12), Mean [4]: −16.00%
SHAQ Visual Analogue Scale - Breathing Problems: Percent Change from Baseline (Day 12), Median [4]: −16.00%
SHAQ Visual Analogue Scale - Finger Ulcers: Baseline, Mean [4]: 0.700
SHAQ Visual Analogue Scale - Finger Ulcers: Baseline, Median [4]: 0.500
SHAQ Visual Analogue Scale - Finger Ulcers: Change from Baseline (Day 12), Mean [4]: −0.425
SHAQ Visual Analogue Scale - Finger Ulcers: Change from Baseline (Day 12), Median [4]: −0.350
SHAQ Visual Analogue Scale - Finger Ulcers: In-Clinic Visit (Day 12), Mean [4]: 0.275
SHAQ Visual Analogue Scale - Finger Ulcers: In-Clinic Visit (Day 12), Median [4]: 0.000
SHAQ Visual Analogue Scale - Finger Ulcers: Percent Change from Baseline (Day 12), Mean [4]: −69.44%
SHAQ Visual Analogue Scale - Finger Ulcers: Percent Change from Baseline (Day 12), Median [4]: −69.44%
SHAQ Visual Analogue Scale - Intestinal Problems: Baseline, Mean [4]: 2.975
SHAQ Visual Analogue Scale - Intestinal Problems: Baseline, Median [4]: 2.550
SHAQ Visual Analogue Scale - Intestinal Problems: Change from Baseline (Day 12), Mean [4]: −1.875
